Measurements from article PMC9146163, “Novel Au Carbene Complexes as Promising Multi-Target Agents in Breast Cancer Treatment” (Pharmaceuticals, 2022).

How the values were obtained:
[1] = test system: caspases 3/7, 8, and 9 in MDA-MB-231 cells; assay: Caspase-Glo assay, MDA-MB-231; format: cell-based, human; conditions: IC50 value, 24 h; vs vehicle
Method: (§1) The activities of caspases 3/7, 8, and 9 were measured by using the Caspase-Glo Assay according to the manufacturer’s guidelines (Caspase-Glo 3/7, 8, and 9 Assay Systems, Promega Corporation, Madison, WI, USA), as already described. The luminescence was detected in a plate-reading luminometer (Synergy H1 Hybrid Reader, BioTek) for 30 min to 3 h (λex/em = 490/570 nm). Results were reported as signal-to-noise ratio (background was determined from the culture medium without cells). The experiments were performed in triplicate.

[2] = LogP determination (1-octanol/water, UV/vis); format: physicochemical; conditions: log[complex]oct/[complex]H2O, 55 μM, UV-Vis
Method: The logarithm of the partition coefficient (LogP) was evaluated by making a slight modification to the procedure reported in ref. [79]. Equal volumes of 1-octanol and water (distilled after milli-Q purification) were stirred for 20 h at room temperature. Then, they were separated to give 1-octanol-saturated water and water-saturated 1-octanol. Six (10, 20, 40, 50, 60 and 100 μM) standard concentrations of the compounds were prepared from the water-saturated 1-octanol. Analysis using UV/vis spectroscopy was used to obtain a calibration curve of absorbance vs. concentration. For each complex, a solution was prepared in the water-saturated 1-octanol (55 μM) and an equal volume of 1-octanol-saturated water was added. The solutions (biphasic) were mixed for 15 min and then centrifuged for 1h at 6500 rpm to allow separation.
Concentration in water-saturated 1-octanol was determined by UV-Vis spectroscopy. Reported LogP is defined as log[complex]oct/[complex]H2O.

[3] = molecular target: T1, human topoisomerase I (hTopo I) (Homo sapiens, UniProt P11387); assay: hTopo I relaxation assay; format: biochemical; conditions: 1 μM; supercoiled pHOT1, agarose gel
T1 construct: purchased TopoGEN, Port Orange, FL, USA

[4] = test system: Hek-293 cells; assay: MTT assay, normal Hek-293; format: cell-based, human; conditions: MTT, 72 h; normal cells; mean ± SD; read-out: IC50 Hek-293
Method: The five employed cell lines were purchased from American Type Culture Collection (ATCC, Manassas, VA, USA) and maintained as already reported. […] SkBr3 cells were maintained in DMEM high glucose, supplemented with 10% FBS and 100 μg/mL penicillin/streptomycin.
(§2) MTT assays [Sigma Aldrich (St.Louis, MO, USA)] were used in order to determine the in vitro anticancer activities of all the target compounds, as already reported.The compounds were tested at different concentrations (0.1-1-10-20-40 µM) for 72 h. Results are represented as percent (%) of basal and the IC50 values were calculated using GraphPad Prism 9 (GraphPad Software, La Jolla, CA, USA).

[5] = molecular target: T2, human topoisomerase II (hTopo II) (Homo sapiens, UniProt P11388); assay: hTopo II decatenation assay; format: biochemical; conditions: 1 μM; kDNA, agarose gel
T2 construct: purchased TopoGEN, Port Orange, FL

[6] = test system: MCF-7 cells; assay: MTT assay, MCF-7; format: cell-based, human; conditions: MTT, 72 h; mean ± SD; read-out: IC50 MCF-7
Method: (§3) The five employed cell lines were purchased from American Type Culture Collection (ATCC, Manassas, VA, USA) and maintained as already reported. MCF-7, MDA-MB-231, MCF-10A and Hek-293 were cultured, as indicated by Iacopetta et al.. SkBr3 cells were maintained in DMEM high glucose, supplemented with 10% FBS and 100 μg/mL penicillin/streptomycin.
as §2

[7] = test system: SkBr3 cells; assay: MTT assay, SkBr3; format: cell-based, human; conditions: MTT, 72 h; mean ± SD; read-out: IC50 SkBr3
Method: as §3, §2

[8] = test system: MDA-MB-231 cells; assay: TUNEL assay, MDA-MB-231; format: cell-based, human; conditions: IC50, 24 h
Text: Images are representative of three independent experiments.

[9] = test system: β-actin in MDA-MB-231 cells; assay: Actin immunofluorescence, MDA-MB-231; format: cell-based, human; conditions: 24 h; compound 1 at its IC50 value, LA 0.1 µM
Method: (§4) The MitoTracker Deep Red FM probe (MitoTracker Mitochondrion-Selective Probes, Invitrogen European Headquarters, Paisley, PA4 9RF, UK) was used for mitochondrial staining, as previously described. For immunofluorescence analysis, the cells were seeded and further processed, as reported by Iacopetta et al.. The primary antibodies used were: rabbit anti-β-Actin and vimentin (Santa Cruz Biotechnology, Dallas, TX, USA), mouse anti cytochrome c and NF-κB p65 (Abcam, Cambridge, UK), diluted 1:100 in bovine serum albumin (BSA) 2% overnight at 4 °C. The secondary antibodies were: Alexa Fluor® 488 conjugate goat-anti-rabbit and Alexa Fluor® 568 conjugate goat-anti-mouse (Thermo Fisher Scientific, MA, USA), diluted 1:500 and incubated for 2h at 37 °C. DAPI 0.2 μg/mL (Sigma Aldrich, Milan, Italy) was used for nuclei staining. […] All the images were acquired and processed using the LAS-X software.

[10] = molecular target: T3, Labeled Rabbit Muscle Actin (Oryctolagus cuniculus, UniProt P68135); assay: In vitro actin polymerization assay; format: biochemical; conditions: 5 µM
T3 construct: purchased Abcam (Actin Polymerization/Depolymerization Assay Kit)
Method: The ability of the tested compounds to interfere with the actin polymerization and depolymerization reaction was measured using an Actin Polymerization/Depolymerization Assay Kit purchased from Abcam, following the manufacturer’s instructions. […] For the polymerization assay, reconstituted actin was mixed with supplemented Buffer G and samples in a white 96-well plate and then the polymerization reaction was induced with the addition of the Buffer P supplemented with 10 mM ATP. The solution was mixed and the data acquisition started. For the Actin Depolymerization Assay, supplemented Buffers P and G were mixed and incubated in a white 96-well plate at room temperature for one hour to polymerize the actin, protected from light. Then samples were added and the data acquisition started. Latrunculin A and Cytochalasin B were used as control molecules at a concentration of 5 μM. For both the assays, the assembly of actin filaments was determined by measuring the fluorescence (Ex/Em: 365/410 nm) in kinetic mode for 1 h at room temperature using a microplate reader.

[11] = test system: MDA-MB-231 cells; assay: MTT assay, MDA-MB-231; format: cell-based, human; conditions: MTT, 72 h; mean ± SD; read-out: IC50 MDA-MB-231
Method: as §3, §2

[12] = test system: cytochrome c in MDA-MB-231 cells; assay: Mitochondria staining and cytochrome c detection, MDA-MB-231; format: cell-based, human; conditions: IC50 value, 24 h
Method: as §4

[13] = test system: caspases 3/7, 8, and 9 in MCF-7 cells; assay: Caspase-Glo assay, MCF-7; format: cell-based, human; conditions: IC50 value, 24 h; vs vehicle
Method: as §1

[14] = test system: β-actin in MCF-7 cells; assay: Actin immunofluorescence, MCF-7; format: cell-based, human; conditions: 24 h; compound 6 at its IC50 value, LA 0.1 µM
Method: as §4

T2 sequence (P11388 whole entry): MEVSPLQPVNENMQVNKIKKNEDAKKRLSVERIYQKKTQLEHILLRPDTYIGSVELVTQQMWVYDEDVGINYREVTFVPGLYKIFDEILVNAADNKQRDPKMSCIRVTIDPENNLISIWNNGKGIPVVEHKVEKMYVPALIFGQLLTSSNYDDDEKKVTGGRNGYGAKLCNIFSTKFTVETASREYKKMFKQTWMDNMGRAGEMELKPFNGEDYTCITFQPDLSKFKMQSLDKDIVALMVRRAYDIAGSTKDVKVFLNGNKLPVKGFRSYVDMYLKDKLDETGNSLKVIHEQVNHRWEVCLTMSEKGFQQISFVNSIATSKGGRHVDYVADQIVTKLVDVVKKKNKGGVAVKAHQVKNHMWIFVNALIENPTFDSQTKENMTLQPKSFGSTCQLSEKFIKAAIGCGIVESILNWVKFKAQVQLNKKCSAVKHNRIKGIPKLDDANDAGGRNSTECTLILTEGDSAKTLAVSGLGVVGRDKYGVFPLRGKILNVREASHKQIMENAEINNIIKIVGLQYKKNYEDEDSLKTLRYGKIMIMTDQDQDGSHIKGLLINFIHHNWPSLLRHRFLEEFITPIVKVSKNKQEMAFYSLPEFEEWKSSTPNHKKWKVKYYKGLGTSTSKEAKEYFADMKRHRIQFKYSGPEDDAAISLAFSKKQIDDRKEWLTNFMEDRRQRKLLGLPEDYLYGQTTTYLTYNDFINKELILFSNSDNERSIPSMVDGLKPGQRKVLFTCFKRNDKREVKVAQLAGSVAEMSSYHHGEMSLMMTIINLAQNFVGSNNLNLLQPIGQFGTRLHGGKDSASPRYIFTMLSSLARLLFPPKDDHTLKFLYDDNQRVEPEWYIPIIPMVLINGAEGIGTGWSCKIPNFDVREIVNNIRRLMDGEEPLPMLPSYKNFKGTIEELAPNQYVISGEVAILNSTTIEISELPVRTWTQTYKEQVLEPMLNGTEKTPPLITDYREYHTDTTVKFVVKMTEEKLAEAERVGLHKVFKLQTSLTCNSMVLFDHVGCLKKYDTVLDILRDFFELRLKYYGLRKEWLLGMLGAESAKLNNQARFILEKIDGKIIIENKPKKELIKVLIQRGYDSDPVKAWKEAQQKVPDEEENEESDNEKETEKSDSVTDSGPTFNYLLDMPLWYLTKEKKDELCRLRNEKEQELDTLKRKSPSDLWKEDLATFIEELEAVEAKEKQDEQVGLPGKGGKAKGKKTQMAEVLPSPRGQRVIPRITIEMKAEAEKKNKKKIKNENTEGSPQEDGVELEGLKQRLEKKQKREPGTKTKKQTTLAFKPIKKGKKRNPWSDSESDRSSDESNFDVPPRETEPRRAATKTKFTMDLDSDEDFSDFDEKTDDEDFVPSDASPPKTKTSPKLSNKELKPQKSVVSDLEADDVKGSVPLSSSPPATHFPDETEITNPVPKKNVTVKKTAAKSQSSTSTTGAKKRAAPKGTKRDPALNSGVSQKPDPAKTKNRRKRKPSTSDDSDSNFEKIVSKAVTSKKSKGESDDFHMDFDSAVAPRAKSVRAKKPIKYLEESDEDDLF
T1 sequence (P11387 whole entry): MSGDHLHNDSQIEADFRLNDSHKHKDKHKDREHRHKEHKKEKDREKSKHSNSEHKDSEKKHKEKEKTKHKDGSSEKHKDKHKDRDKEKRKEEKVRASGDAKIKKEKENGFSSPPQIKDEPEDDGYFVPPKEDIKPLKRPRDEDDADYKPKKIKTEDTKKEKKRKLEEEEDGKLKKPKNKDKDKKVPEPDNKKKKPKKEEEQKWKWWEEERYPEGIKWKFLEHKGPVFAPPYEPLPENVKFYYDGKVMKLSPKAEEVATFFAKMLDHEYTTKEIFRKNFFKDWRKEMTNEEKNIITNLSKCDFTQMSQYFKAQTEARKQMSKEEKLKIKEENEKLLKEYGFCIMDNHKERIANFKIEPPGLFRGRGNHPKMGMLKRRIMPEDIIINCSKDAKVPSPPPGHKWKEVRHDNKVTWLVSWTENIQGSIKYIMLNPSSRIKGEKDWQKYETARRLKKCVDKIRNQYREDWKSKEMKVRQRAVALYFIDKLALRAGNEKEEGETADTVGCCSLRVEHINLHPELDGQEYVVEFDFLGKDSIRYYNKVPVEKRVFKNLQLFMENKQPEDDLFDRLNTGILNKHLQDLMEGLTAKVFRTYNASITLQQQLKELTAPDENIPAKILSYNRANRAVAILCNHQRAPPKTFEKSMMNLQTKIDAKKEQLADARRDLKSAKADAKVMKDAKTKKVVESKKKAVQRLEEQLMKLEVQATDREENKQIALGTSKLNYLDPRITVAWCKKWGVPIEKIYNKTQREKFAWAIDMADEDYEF

Row | SMILES | caspase-3 and -7 activity, MDA-MB-231 [1] | caspase-8 activity, MDA-MB-231 [1] | caspase-9 activity, MDA-MB-231 [1] | LogP [2] | inhibition of hTopo I supercoil relaxing activity [3] | IC50 [4] [µM] | inhibition of hTopo II decatenation activity [5] | IC50 [6] [µM] | IC50 [7] [µM] | apoptosis (TUNEL), MDA-MB-231 [8] | actin organization in MDA-MB-231 cells [9] | effect on actin polymerization (in words) [10] | actin polymerization curve, final value ([10]; end of 1 h kinetic read, control about 37.000 RFU) [RFU] | IC50 [11] [µM] | cytochrome c localization, MDA-MB-231 [12] | caspase-3 and -7 activity, MCF-7 [13] | caspase-8 activity, MCF-7 [13] | caspase-9 activity, MCF-7 [13] | actin organization in MCF-7 cells [14]
1 | Cn1ccn(CC([O-])c2ccccc2)[c]1=[Au+]=[c]1n(C)ccn1CC([O-])c1ccccc1.[Cl-].[Na+].[Na+] (stereo not drawn) [Compound 1] | clear increase | significant rise | no increase | 0.079 | totally inhibit | > 200 | totally inhibited | 29.9 ± 1.1 | 83 ± 1 | induced apoptosis | altered actin bundles organization | inhibiting activity higher that CB but lesser than LA | 17000 | 15.8 ± 0.7 | cytochrome c is localized within mitochondria | – | – | – | –
2 | CC(=O)[O-].Cn1c(Cl)c(Cl)n(CC(O)c2ccccc2)[c]1=[Au+]=[c]1n(C)c(Cl)c(Cl)n1CC(O)c1ccccc1 (stereo not drawn) [Compound 6, Bis [4,5-dichloro-(N-methyl, N’(2-hydroxy-2-phenyl-ethyl)imidazole-2-ylidine]gold(I)] acetate] | – | – | – | 0.78 | totally inhibit | 32.5 ± 1.1 | totally inhibited | 1.2 ± 0.3 | 2.3 ± 0.9 | – | – | inhibiting activity higher that CB but lesser than LA | – | 16.8 ± 1.2 | – | clear increase | significant rise | no increase | actin bundles appeared thicker and dramatically packed into the cytoplasm
